Laboratory results published in patent US7423181B2, “Aminoalkoxy-functional chalcones” (Lica Pharmaceuticals A/S, priority 2002, dated 2008).
Values after ≈ are worked out from the molar mass of the structure shown. Like-named read-outs stand apart in the source and are kept apart here.

How the values were obtained:
[1] = tested on: L. major promastigotes; experiment: Leishmania promastigote assay; settings: L. major
[2] = tested on: Plasmodium falciparum 3D7; experiment: Plasmodium falciparum assay; type: cell-based; settings: Plasmodium falciparum 3D7 (Table 2); read-out: IC50
[3] = tested on: panel of 10 different non-fastidious bacteria; experiment: Screening against panel of non-fastidious bacteria; settings: Gram-positive pathogens
[4] = tested on: Eschericia coli ESS; experiment: MIC determination in broth microdilution assay
[5] = tested on: Staphylococcus aureus ATCC29213; experiment: MIC determination in broth microdilution assay
[6] = tested on: Streptococcus pneumoniae #998 (clinical isolate); experiment: MIC determination in broth microdilution assay
[7] = tested on: Staphylococcus aureus ATCC33591(resistant to methicillin); experiment: MIC determination in broth microdilution assay
[8] = tested on: Enterococcus faecium #17501 (vancomycin-resistant clinical isolate); experiment: MIC determination in broth microdilution assay
[9] = tested on: Eschericia coli ATCC25922; experiment: MIC determination in broth microdilution assay; settings: for MIC: G: Eschericia coli ATCC25922
[10] = tested on: Enterococcus faecalis ATCC29212; experiment: MIC determination in broth microdilution assay
[11] = Determination of metabolic stability (liver microsomes); type: in vitro ADME; settings: rat liver microsomes, 20 μM, 15 min
Description: Determination of Metabolic Stability
Incubations were performed with Wistar rat liver microsomes (0.25 mg/ml) in 2% sodium bicarbonate solution. NADP (0.13 mg/ml), glucose-6-phosphate (0.63 mg/ml) and glucose-6-phosphate dehydrogenase (0.38 units/ml) were used as NADPH generation system and UDPGA (0.48 mg/ml) was added to include the phase II reaction, glucuronic acid conjugation, in the assay. After 5 minutes of pre-incubation the reaction was started by addition of the test article to give a final concentration of 20 μM. Samples were incubated for 15 min at 37° C. and the reactions were terminated by addition of equal volumes of acetonitrile. Blank incubations were performed at the same concentration but without addition of microsomes. Both blank and microsome-containing samples were made in replicats of three. Prior to analysis samples were centrifuged for 10 min. at 3500 rpm,HPLC system:
Initial conditions were 40% mobile phase A (acetonitrile) and 60% mobile phase B (10 mM ammonium acetate pH 9.5). During the first 20 minutes, the mobile phase was changed via a linear gradient to 90% A and 10% B. This was followed by a 5 minutes linear gradient to initial conditions, which were maintained for 5 min. The flow rate was 0.20 m)/min and injection volume 10 μl.

[12] = A: Staphylococcus aureus ATCC29213
[13] = F: Streptococcus pneumoniae #998
[14] = B: Staphylococcus aureus ATCC33591(resistant to methicillin)
[15] = E: Enterococcus faecium #17501 (vancomycin-resistant)
[16] = D: Enterococcus faecalis ATCC29212

Structure (SMILES) | MIC ([4]; H: Eschericia coli ESS) [µM] | MIC [5, 12] [µM] | MIC [6, 13] [µM] | MIC [7, 14] [µM] | MIC [8, 15] [µM] | MIC [9] [µM] | MIC [10, 16] [µM] | also measured
Cc1ccccc1-c1ccc(OCCN(C)C)c(/C=C/C(=O)c2ccccc2CN2CCN(C)CC2)c1 [Compound C032, (E)-3-[4-(2-Dimethylamino-ethoxy)-2′-methyl-biphenyl-3-yl]-1-[2-(4-methyl-piperazin-1-ylmethyl)-phenyl]-propenone] |  |  |  |  |  |  |  | IC50 [1]: 700 nM; IC50 [2]: 500 nM
Cc1cc(C)cc(-c2ccc(OCCN(C)C)c(/C=C/C(=O)c3ccc(O)cc3F)c2)c1 [Compound C156, (E)-3-[4-(2-Dimethylamino-ethoxy)-3′,5′-dimethyl-biphenyl-3-yl]-1-(2-fluoro-4-hydroxy-phenyl)-propenone] |  |  |  |  |  |  |  | IC50 [2]: 100 nM
COc1ccc(C(=O)/C=C/c2cc(C(C)(C)C)ccc2OCCN(C)C)c(F)c1 [Compound C004, (E)-3-[5-tert-Butyl-2-(2-dimethylamino-ethoxy)-phenyl]-1-(2-fluoro-4-methoxy-phenyl)-propenone] | 9.4 (≈ 3.76 µg/mL) | 9.4 (≈ 3.76 µg/mL) | 18.8 (≈ 7.51 µg/mL) | 9.4 (≈ 3.76 µg/mL) | 18.8 (≈ 7.51 µg/mL) | 75.0 (≈ 30 µg/mL) | 18.8 (≈ 7.51 µg/mL) | potency against Gram-positive pathogens in comparison with Licochalcone A [3]: increased potency
Cc1cc(C)cc(-c2ccc(OCCN(C)C)c(/C=C/C(=O)c3ccc(O)c(F)c3)c2)c1 [Compound C140, (E)-3-[4-(2-Dimethylamino-ethoxy)-3′,5′-dimethyl-biphenyl-3-yl]-1-(3-fluoro-4-hydroxy-phenyl)-propenone] |  |  |  |  |  |  |  | IC50 [1]: 200 nM
COc1ccc(C(=O)/C=C/c2cc(-c3cc(C)cc(C)c3)ccc2OCCN(C)C)c(F)c1 [Compound C024, (E)-3-[4-(2-Dimethylamino-ethoxy)-3′,5′-dimethyl-biphenyl-3-yl]-1-(2-fluoro-4-methoxy-phenyl)-propenone] |  |  |  |  |  |  |  | IC50 [1]: 40 nM; Metabolic turn-over in vitro [11]: 3%
CN(C)CCCOc1cccc(/C=C/C(=O)c2ccccc2CN(C)C)c1 [Compound C071, (E)-1-(2-Dimethylaminomethyl-phenyl)-3-[3-(3-dimethylamino-propoxy)-phenyl]-propenone] |  |  |  |  |  |  |  | Metabolic turn-over in vitro [11]: 3%
Cc1cc(C)cc(-c2ccc(OCCN(C)C)c(/C=C/C(=O)c3cccc(CN(C)C)c3)c2)c1 [Compound C089, (E)-3-[4-(2-Dimethylamino-ethoxy)-3′,5′-dimethyl-biphenyl-3-yl]-1-(3-dimethylaminomethyl-phenyl)-propenone] | 4.7 (≈ 2.15 µg/mL) | 9.4 (≈ 4.29 µg/mL) | 9.7 (≈ 4.43 µg/mL) | 9.4 (≈ 4.29 µg/mL) | 9.4 (≈ 4.29 µg/mL) | 37.5 (≈ 17.1 µg/mL) | 9.4 (≈ 4.29 µg/mL) | Metabolic turn-over in vitro [11]: 9%
Cc1cc(C)cc(-c2ccc(OCCN(C)C)c(/C=C/C(=O)c3cccc(O)c3)c2)c1 [Compound C085, (E)-3-[4-(2-Dimethylamino-ethoxy)-3′,5′-dimethyl-biphenyl-3-yl]-1-(3-hydroxy-phenyl)-propenone] | 4.7 (≈ 1.95 µg/mL) | 4.7 (≈ 1.95 µg/mL) | 75 (≈ 31.2 µg/mL) | 4.7 (≈ 1.95 µg/mL) | 4.7 (≈ 1.95 µg/mL) |  | 4.7 (≈ 1.95 µg/mL) | 
COc1ccc(C(=O)/C=C/c2cc(-c3cc(C)cc(C)c3)ccc2OCCN(C)C)c(CN(C)C)c1 [Compound C092, (E)-3-[4-(2-Dimethylamino-ethoxy)-3′,5′-dimethyl-biphenyl-3-yl]-1-(2-dimethylaminomethyl-4-methoxy-phenyl)-propenone] | 4.7 (≈ 2.29 µg/mL) | 4.7 (≈ 2.29 µg/mL) | 4.7 (≈ 2.29 µg/mL) | 9.4 (≈ 4.57 µg/mL) | 4.7 (≈ 2.29 µg/mL) | 75 (≈ 36.5 µg/mL) | 4.7 (≈ 2.29 µg/mL) | Metabolic turn-over in vitro [11]: 4%
Cc1cc(C)cc(-c2ccc(OCCN(C)C)c(/C=C/C(=O)c3cccc(N4CCN(C)CC4)c3)c2)c1 [Compound C103, (E)-3-[4-(2-Dimethylamino-ethoxy)-3′,5′-dimethyl-biphenyl-3-yl]-1-[3-(4-methyl-piperazin-1-yl)-phenyl]-propenone] | 4.7 (≈ 2.34 µg/mL) | 4.7 (≈ 2.34 µg/mL) |  | 4.7 (≈ 2.34 µg/mL) | 9.4 (≈ 4.68 µg/mL) | 18.8 (≈ 9.36 µg/mL) | 9.4 (≈ 4.68 µg/mL) | activity against ESS strain of E.coli [4]: high activity; activity against E coli ATCC25922 [9]: high activity
COc1ccc(C(=O)/C=C/c2cc(-c3ccccc3)ccc2OCCN(C)C)c(F)c1 [Compound C011, (E)-3-[4-(2-Dimethylamino-ethoxy)-biphenyl-3-yl]-1-(2-fluoro-4-methoxy-phenyl)-propenone] |  |  |  |  |  |  |  | IC50 [1]: 100 nM
CN(C)CCOc1ccc(-c2ccccc2O)cc1/C=C/C(=O)c1ccccc1CN(C)C [Compound C131, (E)-3-[4-(2-Dimethylamino-ethoxy)-2′-hydroxy-biphenyl-3-yl]-1-(2-dimethylaminomethyl-phenyl)-propenone] |  |  |  |  |  |  |  | IC50 [2]: 300 nM
CCCc1cc(/C=C/C(=O)c2ccc(OC)cc2F)c(OCCN(C)C)cc1O [Compound C039, (E)-3-[2-(2-Dimethylamino-ethoxy)-4-hydroxy-5-propyl-phenyl]-1-(2-fluoro-4-methoxy-phenyl)-propenone] | 9.4 (≈ 3.77 µg/mL) | 9.4 (≈ 3.77 µg/mL) | 18.8 (≈ 7.55 µg/mL) | 18.8 (≈ 7.55 µg/mL) | 18.8 (≈ 7.55 µg/mL) | 75.0 (≈ 30.1 µg/mL) | 18.8 (≈ 7.55 µg/mL) | 
COc1ccc(C(=O)/C=C/c2cc(-c3cc(C)cc(C)c3)ccc2OCCN(C)C)cc1CN(C)C [Compound C090, (E)-3-[4-(2-Dimethylamino-ethoxy)-3′,5′-dimethyl-biphenyl-3-yl]-1-(3-dimethylaminomethyl-4-methoxy-phenyl)-propenone] |  |  |  |  |  |  |  | IC50 [2]: 500 nM
Cc1cc(C)cc(-c2ccc(OCCN(C)C)c(/C=C/C(=O)c3ccccc3OCCCN(C)C)c2)c1 [Compound C104, (E)-3-[4-(2-Dimethylamino-ethoxy)-3′,5′-dimethyl-biphenyl-3-yl]-1-[2-(3-dimethylamino-propoxy)-phenyl]-propenone] | 9.4 (≈ 4.71 µg/mL) | 9.4 (≈ 4.71 µg/mL) | 9.4 (≈ 4.71 µg/mL) | 18.8 (≈ 9.41 µg/mL) | 9.4 (≈ 4.71 µg/mL) | 18.8 (≈ 9.41 µg/mL) | 9.4 (≈ 4.71 µg/mL) | 
Cc1cc(C)cc(-c2ccc(OCCN(C)C)c(/C=C/C(=O)c3ccc(OCCN(C)C)cc3F)c2)c1 [Compound C157, (E)-3-[4-(2-Dimethylamino-ethoxy)-3′,5′-dimethyl-biphenyl-3-yl]-1-[4-(2-dimethylamino-ethoxy)-2-fluoro-phenyl]-propenone] | 4.7 (≈ 2.37 µg/mL) | 4.7 (≈ 2.37 µg/mL) | 9.4 (≈ 4.74 µg/mL) | 9.4 (≈ 4.74 µg/mL) | 9.4 (≈ 4.74 µg/mL) | 18.8 (≈ 9.49 µg/mL) | 9.4 (≈ 4.74 µg/mL) | 
Cc1cc(C)cc(-c2ccc(OCCN(C)C)c(CCC(=O)c3ccc(F)cc3)c2)c1 [Compound C072, 3-[4-(2-Dimethylamino-ethoxy)-3′,5′-dimethyl-biphenyl-3-yl]-1-(4-fluoro-phenyl)-propan-1-one] |  |  |  |  |  |  |  | MIC [4]: 9.4 µM (≈ 3.94 µg/mL); MIC ([5]; Staphylococcus aureus, ATCC29213): 9.4 µM (≈ 3.94 µg/mL); MIC ([6]; Streptococcus pneumoniae): 37.5 µM (≈ 15.7 µg/mL); MIC ([7]; Staphylococcus aureus, ATCC33591): 18.8 µM (≈ 7.89 µg/mL); MIC ([8]; Enterococcus faecium): 18.8 µM (≈ 7.89 µg/mL); MIC ([10]; Enterococcus faecalis, ATCC29212): 18.8 µM (≈ 7.89 µg/mL)
Cc1cc(C)cc(-c2ccc(OCCN(C)C)c(/C=C/C(=O)c3ccccc3N)c2)c1 [Compound C093, (E)-1-(2-Amino-phenyl)-3-[4-(2-dimethylamino-ethoxy)-3′,5′-dimethyl-biphenyl-3-yl]-propenone] | 4.7 (≈ 1.95 µg/mL) | 4.7 (≈ 1.95 µg/mL) | 18.8 (≈ 7.79 µg/mL) | 4.7 (≈ 1.95 µg/mL) | 4.7 (≈ 1.95 µg/mL) |  | 9.4 (≈ 3.9 µg/mL) | 
Cc1cc(C)cc(-c2ccc(OCCN(C)C)c(/C=C/C(=O)c3ccccc3OC(C)C)c2)c1 [Compound C067, (E)-3-[4-(2-Dimethylamino-ethoxy)-3′,5′-dimethyl-biphenyl-3-yl]-1(2-isopropoxy-phenyl)-propenone] | 18.8 (≈ 8.6 µg/mL) | 4.7 (≈ 2.15 µg/mL) | 18.8 (≈ 8.6 µg/mL) | 4.7 (≈ 2.15 µg/mL) | 4.7 (≈ 2.15 µg/mL) |  | 4.7 (≈ 2.15 µg/mL) | 
